Data from PMC9154810, “Selective inhibition of carbonic anhydrase IX by sulphonylated 1,2,3-triazole incorporated benzenesulphonamides capable of inducing apoptosis” (Journal of Enzyme Inhibition and Medicinal Chemistry, 2022).

Experiments:
hCA I = hCA I (Homo sapiens, UniProt P00915); assay: stopped-flow CO2 hydrase assay, hCA I; conditions: mean from three assays, stopped-flow technique, errors ± 5–10%
Text: (§1) An Sx.18Mv-R Applied Photophysics (Oxford, UK) stopped-flow instrument was used to assay the catalytic activity of various CA isozymes for CO2 hydration reaction.[21]

hCA II = hCA II (Homo sapiens, UniProt P00918); assay: stopped-flow CO2 hydrase assay, hCA II
Text: as §1

hCA IV = hCA IV (Homo sapiens, UniProt P22748); assay: stopped-flow CO2 hydrase assay, hCA IV
Sequence of hCA IV (P22748 19-312): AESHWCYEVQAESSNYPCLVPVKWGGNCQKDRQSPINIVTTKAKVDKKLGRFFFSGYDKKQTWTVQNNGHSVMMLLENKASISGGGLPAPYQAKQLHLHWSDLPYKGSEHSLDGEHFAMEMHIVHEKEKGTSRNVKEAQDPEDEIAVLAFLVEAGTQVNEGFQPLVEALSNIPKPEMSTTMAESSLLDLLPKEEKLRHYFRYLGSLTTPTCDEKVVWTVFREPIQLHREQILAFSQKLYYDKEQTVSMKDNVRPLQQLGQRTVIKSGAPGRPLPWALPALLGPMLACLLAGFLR
Text: as §1

hCA IX = hCA IX (Homo sapiens, UniProt Q16790); assay: stopped-flow CO2 hydrase assay, hCA IX; conditions: for Selectivity index I/IX: ratio KI hCA I / KI hCA IX; for Selectivity index II/IX: ratio KI hCA II / KI hCA IX
Text: as §1

Sequence of hCA I (P00915 whole entry): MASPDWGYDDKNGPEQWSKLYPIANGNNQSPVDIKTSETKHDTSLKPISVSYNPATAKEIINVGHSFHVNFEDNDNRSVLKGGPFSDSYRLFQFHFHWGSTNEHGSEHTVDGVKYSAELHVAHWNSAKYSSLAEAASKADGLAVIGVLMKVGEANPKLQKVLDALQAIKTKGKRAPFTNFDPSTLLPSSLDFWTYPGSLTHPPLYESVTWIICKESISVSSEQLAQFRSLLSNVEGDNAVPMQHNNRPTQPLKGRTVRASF

Ki (hCA I)	melting point	Ki (hCA II)	Ki (hCA IV)	Ki (hCA IX)	Selectivity index I/IX (hCA IX)	Selectivity index II/IX (hCA IX)	selectivity for hCA IX over hCA I (hCA IX)	selectivity for hCA IX over hCA II (hCA IX)	SMILES
97.9 nM	214 to 216 °C	9.6 nM	149 nM	21.5 nM	4.55	0.45	–	–	NS(=O)(=O)c1ccc(-n2nnc(S(=O)(=O)c3ccccc3)c2-c2ccccc2)cc1 [Compound 9a, 4-(5-phenyl-4-(phenylsulphonyl)-1H-1,2,3-triazol-1-yl)benzenesulphonamide]
9350 nM	210 to 212 °C	37.6 nM	1210 nM	28.8 nM	324.62	1.30	more than 100 fold	–	COc1ccc(-c2c(S(=O)(=O)c3ccccc3)nnn2-c2ccc(S(N)(=O)=O)cc2)cc1Br [Compound 9h, 4-(5-(3-bromo-4-methoxyphenyl)-4-(phenylsulphonyl)-1H-1,2,3-triazol-1-yl)benzenesulphonamide]
3540 nM	214 to 216 °C	833 nM	414 nM	24.8 nM	142.86	33.60	more than 100 fold	more than 30 fold	NS(=O)(=O)c1ccc(-n2nnc(S(=O)(=O)c3ccccc3)c2-c2ccc(-c3ccccc3)cc2)cc1 [Compound 9k, 4-(5-([1,1′-biphenyl]-4-yl)-4-(phenylsulphonyl)-1H-1,2,3-triazol-1-yl)benzenesulphonamide]
689 nM	97 to 99 °C	370 nM	84.3 nM	28.6 nM	24.10	12.93	–	–	NS(=O)(=O)c1cccc(-n2nnc(S(=O)(=O)c3ccccc3)c2-c2cccc(Br)c2)c1 [Compound 10f, 3-(5-(3-bromophenyl)-4-(phenylsulphonyl)-1H-1,2,3-triazol-1-yl)benzenesulphonamide]
7840 nM	235 to 237 °C	6.2 nM	493 nM	24.9 nM	314.73	0.25	more than 100 fold	–	COc1ccc(-c2c(S(=O)(=O)c3ccccc3)nnn2-c2ccc(S(N)(=O)=O)cc2)cc1 [Compound 9g, 4-(5-(4-methoxyphenyl)-4-(phenylsulphonyl)-1H-1,2,3-triazol-1-yl)benzenesulphonamide]
4630 nM	213 to 215 °C	56.7 nM	526 nM	25.1 nM	184.42	2.26	more than 100 fold	–	NS(=O)(=O)c1ccc(-n2nnc(S(=O)(=O)c3ccccc3)c2-c2ccc(Cl)cc2)cc1 [Compound 9d, 4-(5-(4-chlorophenyl)-4-(phenylsulphonyl)-1H-1,2,3-triazol-1-yl)benzenesulphonamide]
264 nM	207 to 209 °C	6.6 nM	86.1 nM	66 nM	4.00	0.10	–	–	NS(=O)(=O)c1ccc(-n2nnc(S(=O)(=O)c3ccccc3)c2-c2ccc(F)cc2)cc1 [Compound 9c, 4-(5-(4-fluorophenyl)-4-(phenylsulphonyl)-1H-1,2,3-triazol-1-yl)benzenesulphonamide]
2060 nM	74 to 76 °C	211 nM	849 nM	22.6 nM	91.02	9.33	–	–	NS(=O)(=O)c1cccc(-n2nnc(S(=O)(=O)c3ccccc3)c2-c2ccc(-c3ccccc3)cc2)c1 [Compound 10k, 3-(5-([1,1′-biphenyl]-4-yl)-4-(phenylsulphonyl)-1H-1,2,3-triazol-1-yl)benzenesulphonamide]
